The results in this text go back to patent US7368129B1, “Amphiphilic materials and liposome formulations thereof” (Nutrimed Biotech, priority 1996, dated 2008).

A short description of this series: X-ray diffraction of hydrated amphiphile and phosphatidylcholine mixtures at constant osmotic pressure. Type of series: physicochemical. The conditions noted are these: 20° C., constant osmotic pressure 1.6×10^5 dyne/cm^2; 20 mole percent Oleoyl-PEG(1500)-Oleoyl; pure SOPC = 0 mole % additive. The text has this:
Unoriented multilamellar fully hydrated lipid preparations in sealed glass capillaries held in a point collimated X-ray beam produce recordable “powder” diffraction patterns. The overall lamellar repeat period calculated from X-ray diffraction pattern comprises discernible double lipid chain thickness and interbilayer separation arising from the aqueous fluid in contact with the polar head groups. For osmotically stressed multilamellar preparations, the interbilayer separation decreases as a function of applied pressure and reaches a minimum approaching the closest contact for the head groups of the opposing phospholipids. […]
In the multilamellar vesicles prepared from phospholipid compositions doped with the novel amphiphiles, the bulky head group residues are expected to reside in and enlarge (widen) the interbilayer gap. Therefore, in comparative studies on preparations with and without a selected amphiphile, the interbilayer repeat distances are measured. In addition, the effect of osmotic pressures, produced by 4% PVP (up to ca. 1.6×10^5 dyne/cm^2), is evaluated. […]
X-ray diffraction was used to characterize the liposomes (MLVs) prepared in EXAMPLE 1 by hydration of selected novel amphiphile and PC mixtures. […] Osmotic pressures for PVP solutions are recorded in the literature (Parsegian et al., 1986). […]

On to `CCCCCCCC/C=C\CCCCCCCC(=O)O[C@H](COC(=O)CCCCCCCCCCCCCCCCC)COP(=O)([O-])OCC[N+](C)(C)C` [SOPC, 1-stearoyl-2-oleoyl-sn-glycero-3-phosphocholine], for which the “lamellar repeat period d100 in SOPC as a function of mole percent additive” value was determined as 58 Å.
